Measurements as given in patent US20200077648A1, “PHENOXYPHENYLAMIDINES AND THE USE THEREOF AS FUNGICIDES” (priority 2016, published 2020).

Experiments:
soy bean plants = test: Plant compatibility test using soy bean plants; type: in vivo; details: soy bean young plants sprayed, rate of application of active compound 500 ppm, evaluated 6 days after application; 0% = no damages, 100% = plants totally damaged
Protocol: Plant Compatibility Test Using Soy Bean Plants
Solvent: 24.5 parts by weight of acetone • 24.5 parts by weight of dimethylacetamide Emulsifier: 1 part by weight of alkylaryl polyglycol ether
To produce a suitable preparation of active compound, 1 part by weight of active compound is mixed with the stated amounts of solvent and emulsifier, and the concentrate is diluted with water to the desired concentration. Young plants are sprayed with the preparation of active compound at the stated application rate. The plants are then placed in a greenhouse at approximately 21° C. and a relative atmospheric humidity of approximately 80%. The test is evaluated 6 days after application and comprises plant damages like leaf deformation, chlorosis, necrosis, shoot damage or stunting. 0% means no damages are observed, while 100% means that the plants are totally damaged.

[1] = Log P measurement by HPLC on reversed phase columns (EEC directive 79/831 Annex V.A8; methods [a], [b], [c]); type: physicochemical
Protocol: If more than one Log P value is available within the same method, all the values are given and separated by “+”. […] Lambda-max-values were determined using UV-spectra from 200 nm to 400 nm and the peak values of the chromatographic signals.

[2] = method [a]: LC-UV, acidic range, 0.1% formic acid in water and acetonitrile as eluent
[3] = method [a]: LC-UV, acidic range, 0.1% formic acid in water and acetonitrile as eluent (linear gradient 10% to 95% acetonitrile)
[4] = method [b]: LC-UV, neutral range, 0.001 molar ammonium acetate solution in water and acetonitrile as eluent

LogP [1, 3]	LogP [1, 4]	SMILES	Necrosis in % (soy bean plants)	LogP [1, 2]
		CCN(C)C=Nc1cc(C(F)(F)F)c(Oc2ccccc2C#N)cc1C [Example 21]	20%	1.46^[a]
1.46^[a]		CCN(C)C=Nc1cc(C(F)F)c(Oc2ccccc2F)cc1C [Example 105]	0%	
1.35^[a]		CCN(C)C=Nc1cc(C)c(Oc2cccc(F)c2C#N)cc1Cl [Example 88]	20%	
1.69^[a]		CCN(C)C=Nc1cc(C)c(Oc2ccccc2C(F)(F)F)cc1C [Example 114]	5%	
		CCN(C)C=Nc1cc(Cl)c(Oc2ccc(F)cc2)cc1C [Example 8]	0%	1.55^[a]
	4.79^[b]	CCN(C)C=Nc1cc(Br)c(Oc2ccccc2)cc1C [Example 36]	40%	1.58^[a];
		CCN(C)C=Nc1cc(C)c(Oc2cccc(F)c2)cc1C [Example 2]	80%	1.50^[a]
1.18^[a]		CCN(C)C=Nc1cc(C(F)F)c(Oc2ccccc2C#N)cc1C [Example 102]	0%	
		Cc1cc(Oc2ccccc2F)c(C)cc1N=CN(C)C(C)C [Example 67]	40%	1.68^[a]
1.60^[a]		C=C(C)c1cc(N=CN(C)CC)c(C)cc1Oc1ccccc1F [Example 118]	5%	
		Cc1cc(N=CN(C)C(C)C)c(Cl)cc1Oc1ccccc1F [Example 7]	10%	1.80^[a]
	5.01^[b]	CCN(C)C=Nc1cc(I)c(Oc2ccccc2)cc1C [Example 30]	50%	1.69^[a];
1.27^[a]		CCN(C)C=Nc1cc(C)c(Oc2cc(F)ccc2C#N)cc1Cl [Example 93]	10%	
		CCN(C)C=Nc1cc(Cl)c(Oc2cccc(F)c2)cc1C [Example 12]	5%	1.75^[a]
		CCN(C)C=Nc1cc(I)c(Oc2ccccc2F)cc1C [Example 55]	10%	1.58^[a]
		CCN(C)C=Nc1cc(Cl)c(Oc2cccc(Cl)c2)cc1C [Example 48]	30%	1.83^[a]

LogP [1, 3]	LogP [1, 4]	SMILES	Necrosis in % (soy bean plants)	LogP [1, 2]
1.75^[a]		CCN(C)C=Nc1cc(C(C)C)c(Oc2ccccc2C#N)cc1C [Example 107]	0%	
		CCN(C)C=Nc1cc(Br)c(Oc2ccccc2F)cc1C [Example 42]	20%	1.55^[a]
		CCN(C)C=Nc1cc(I)c(Oc2ccccc2C#N)cc1C [Example 56]	10%	1.37^[a]
	3.93^[b]	CCN(C)C=Nc1cc(OC)c(Oc2ccccc2)cc1C [Example 31]	30%	1.42^[a];
		CCN(C)C=Nc1cc(F)c(Oc2ccccc2F)cc1C [Example 65]	20%	1.34^[a]
		CCN(C)C=Nc1cc(C)c(Oc2ccc(F)cc2)cc1Cl [Example 9]	5%	1.47^[a]
		CCN(C)C=Nc1cc(C)c(Oc2cccc(F)c2F)cc1C [Example 19]	60%	1.49^[a]
1.48^[a]		Cc1cc(Oc2ccccc2C#N)c(C)cc1N=CN(C)C(C)C [Example 71]	5%	
1.69^[a]		CCc1cc(N=CN(C)CC)c(C)cc1Oc1ccccc1F [Example 106]	30%	
		CCN(C)C=Nc1cc(C)c(Oc2cccc(F)c2)cc1Cl [Example 5]	10%	1.58^[a]
		CCN(C)C=Nc1cc(C)c(Oc2cccc(C)c2F)cc1C [Example 20]	80%	1.69^[a]
1.35^[a]		CCN(C)C=Nc1cc(C)c(Oc2ccccc2C(=O)OC)cc1Cl [Example 77]		
		CCN(C)C=Nc1cc(C)c(Oc2ccccc2Cl)cc1C [Example 16]	30%	1.86^[a]
0.91^[a]		CCN(C)C=Nc1cc(C)c(Oc2ccccc2S(C)(=O)=O)cc1C [Example 122]		
		CCN(C)C=Nc1cc(C)c(Oc2ccccc2I)cc1C(F)F [Example 41]		1.90^[a]

SMILES	LogP [1, 3]	LogP [1, 4]	Necrosis in % (soy bean plants)	LogP [1, 2]
CCN(C)C=Nc1cc(C2CC2)c(Oc2ccccc2F)cc1C [Example 120]	1.60^[a]		0%	
